Test results taken from patent US10793564B2, “Amino acid compounds and methods of use” (Pliant Therapeutics, Inc., priority 2018, dated 2020).

Each compound was assayed against recombinant human integrin αVβ6 (Homo sapiens (Human), UniProt P06756+P18564) (assay: Solid phase integrin αVβ6 binding assay). Details: inhibition of recombinant TGFβ1 LAP binding to coated integrin, IC50 presented in four ranges, read-out: αvβ6 Inhibition IC50 (nM) - range.
How it was run: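 Plates coated with recombinant human αVβ6 (2 μg/mL) and blocked; compounds competed with TGFβ1 LAP (0.67 μg/mL) in Mn2+ (0.5 mM)/BSA/sucrose TBS for 2 h at 25° C. Bound LAP detected by biotin anti-LAP and peroxidase-streptavidin; IC50 by four-parameter logistic fit.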

recombinant human integrin αVβ6, sequence (P06756 31-992): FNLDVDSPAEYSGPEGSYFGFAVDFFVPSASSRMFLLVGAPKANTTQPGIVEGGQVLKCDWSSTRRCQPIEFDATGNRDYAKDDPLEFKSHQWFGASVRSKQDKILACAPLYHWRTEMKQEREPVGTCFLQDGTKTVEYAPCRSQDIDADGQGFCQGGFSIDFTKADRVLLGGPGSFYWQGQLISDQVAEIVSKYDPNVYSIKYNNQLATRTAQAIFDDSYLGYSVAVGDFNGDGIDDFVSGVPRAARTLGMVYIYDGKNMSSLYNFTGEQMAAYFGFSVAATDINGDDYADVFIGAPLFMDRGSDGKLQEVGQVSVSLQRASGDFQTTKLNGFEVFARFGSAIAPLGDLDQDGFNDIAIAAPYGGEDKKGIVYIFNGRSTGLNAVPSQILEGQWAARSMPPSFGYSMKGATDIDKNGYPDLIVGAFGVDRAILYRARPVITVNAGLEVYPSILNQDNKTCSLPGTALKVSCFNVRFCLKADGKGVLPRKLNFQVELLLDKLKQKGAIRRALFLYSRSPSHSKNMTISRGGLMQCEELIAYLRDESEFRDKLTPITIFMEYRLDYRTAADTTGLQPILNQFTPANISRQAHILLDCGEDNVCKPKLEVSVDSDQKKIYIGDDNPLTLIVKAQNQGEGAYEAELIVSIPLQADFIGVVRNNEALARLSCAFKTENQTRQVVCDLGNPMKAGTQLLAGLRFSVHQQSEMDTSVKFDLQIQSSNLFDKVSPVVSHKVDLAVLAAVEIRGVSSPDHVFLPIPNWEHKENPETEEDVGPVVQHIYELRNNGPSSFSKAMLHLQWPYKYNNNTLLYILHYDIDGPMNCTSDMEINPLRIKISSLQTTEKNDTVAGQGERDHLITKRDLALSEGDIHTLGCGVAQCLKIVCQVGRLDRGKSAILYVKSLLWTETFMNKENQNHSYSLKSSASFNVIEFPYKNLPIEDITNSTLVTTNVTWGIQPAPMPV
recombinant human integrin αVβ6, sequence (P18564 22-707): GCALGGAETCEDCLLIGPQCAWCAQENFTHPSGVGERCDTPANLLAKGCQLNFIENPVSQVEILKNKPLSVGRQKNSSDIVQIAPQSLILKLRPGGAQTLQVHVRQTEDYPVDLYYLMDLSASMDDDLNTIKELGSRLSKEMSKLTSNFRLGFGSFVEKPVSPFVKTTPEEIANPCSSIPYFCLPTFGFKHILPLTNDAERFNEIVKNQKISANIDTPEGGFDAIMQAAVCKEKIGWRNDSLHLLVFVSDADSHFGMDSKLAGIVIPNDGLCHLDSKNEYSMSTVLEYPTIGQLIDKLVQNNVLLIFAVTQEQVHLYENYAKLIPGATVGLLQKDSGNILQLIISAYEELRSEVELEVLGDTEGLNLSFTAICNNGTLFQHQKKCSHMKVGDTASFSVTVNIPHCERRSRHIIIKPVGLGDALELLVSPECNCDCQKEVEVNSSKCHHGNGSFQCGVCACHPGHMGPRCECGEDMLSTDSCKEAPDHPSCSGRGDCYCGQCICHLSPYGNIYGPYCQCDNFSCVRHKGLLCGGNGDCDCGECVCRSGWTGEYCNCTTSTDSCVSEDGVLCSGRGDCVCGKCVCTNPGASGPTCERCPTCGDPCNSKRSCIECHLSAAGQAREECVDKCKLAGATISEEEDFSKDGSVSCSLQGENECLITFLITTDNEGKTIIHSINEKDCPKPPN

SMILES	IC50 [nM]
CS(=O)(=O)CCN(CCCCc1ccc2c(n1)NCCC2)CC[C@H](Nc1cc(-n2cccn2)ncn1)C(=O)O [Compound 126, (S)-2-((6-(1H-pyrazol-1-yl)pyrimidin-4-yl)amino)-4-((2-(methylsulfonyl)ethyl) (4-(5,6,7,8-tetrahydro-1,8-naphthyridin-2-yl)butyl)amino) butanoic Acid]	> 1000
COC[C@@H](F)CN(CCCCc1ccc2c(n1)NCCC2)CC[C@H](Nc1cc(-c2ccccc2)ncn1)C(=O)O [Compound 128, (S)-4-(((S)-2-fluoro-3-methoxypropyl) (4-(5,6,7,8-tetrahydro-1,8-naphthyridin-2-yl)butyl)amino)-2-((6-phenylpyrimidin-4-yl)amino) butanoic Acid]	> 1000
O=C(O)[C@H](CCN(CCCCc1ccc2c(n1)NCCC2)CC1CCO1)Nc1ncnc2ccccc12 (stereo partly drawn) [Compound 129, (2S)-4-((oxetan-2-ylmethyl) (4-(5,6,7,8-tetrahydro-1,8-naphthyridin-2-yl)butyl)amino)-2-(quinazolin-4-ylamino) butanoic Acid]	< 50
O=C(O)[C@H](CCN(CCCCc1ccc2c(n1)NCCC2)CC(CO)CO)Nc1ncnc2ccccc12 [Compound 130, (S)-4-((3-hydroxy-2-(hydroxymethyl)propyl) (4-(5,6,7,8-tetrahydro-1,8-naphthyridin-2-yl)butyl)amino)-2-(quinazolin-4-ylamino) butanoic Acid]	< 50
O=C(O)[C@H](CCN(CCCCc1ccc2c(n1)NCCC2)CCC(F)F)Nc1ncc(C(F)(F)F)cn1 [Compound 132, (S)-4-((3,3-difluoropropyl) (4-(5,6,7,8-tetrahydro-1,8-naphthyridin-2-yl)butyl)amino)-2-((5-(trifluoromethyl)pyrimidin-2-yl)amino) butanoic Acid]	50 to 250
Cn1ncc2c(N[C@@H](CCN(CCCCc3ccc4c(n3)NCCC4)CCC(F)F)C(=O)O)ncnc21 [Compound 133, (S)-4-((3,3-difluoropropyl) (4-(5,6,7,8-tetrahydro-1,8-naphthyridin-2-yl)butyl)amino)-2-((1-methyl-1H-pyrazolo[3,4-d]pyrimidin-4-yl)amino) butanoic Acid]	50 to 250
O=C(O)[C@H](CCN(CCCCc1ccc2c(n1)NCCC2)CCC(F)F)Nc1ccnc(C(F)(F)F)n1 [Compound 134, (S)-4-((3,3-difluoropropyl) (4-(5,6,7,8-tetrahydro-1,8-naphthyridin-2-yl)butyl)amino)-2-((2-(trifluoromethyl)pyrimidin-4-yl)amino) butanoic Acid]	50 to 250
Cn1ncc2c(N[C@@H](CCN(CCCF)CCCCc3ccc4c(n3)NCCC4)C(=O)O)ncnc21 [Compound 136, (S)-4-((3-fluoropropyl) (4-(5,6,7,8-tetrahydro-1,8-naphthyridin-2-yl)butyl)amino)-2-((1-methyl-1H-pyrazolo[3,4-d]pyrimidin-4-yl)amino) butanoic Acid]	< 50
O=C(O)[C@H](CCN(CCCF)CCCCc1ccc2c(n1)NCCC2)Nc1ncc(C(F)(F)F)cn1 [Compound 137, (S)-4-((3-fluoropropyl) (4-(5,6,7,8-tetrahydro-1,8-naphthyridin-2-yl)butyl)amino)-2-((5-(trifluoromethyl)pyrimidin-2-yl)amino) butanoic Acid]	< 50
N#Cc1cnc(N[C@@H](CCN(CCCCc2ccc3c(n2)NCCC3)CCOc2ccc(F)cc2)C(=O)O)nc1 [Compound 138, (S)-2-((5-cyanopyrimidin-2-yl)amino)-4-((2-(4-fluorophenoxy)ethyl) (4-(5,6,7,8-tetrahydro-1,8-naphthyridin-2-yl)butyl)amino) butanoic Acid]	< 50
O=C(O)[C@H](CCN(CCCCc1ccc2c(n1)NCCC2)CCOc1ccc(F)cc1)Nc1ncc(C(F)(F)F)cn1 [Compound 139, (S)-4-((2-(4-fluorophenoxy)ethyl) (4-(5,6,7,8-tetrahydro-1,8-naphthyridin-2-yl)butyl)amino)-2-((5-(trifluoromethyl)pyrimidin-2-yl)amino) butanoic Acid]	< 50
CN(C)C(=O)CN(CCCCc1ccc2c(n1)NCCC2)CC[C@H](Nc1ncnc2c1cnn2C)C(=O)O [Compound 140, (S)-4-((2-(dimethylamino)-2-oxoethyl) (4-(5,6,7,8-tetrahydro-1,8-naphthyridin-2-yl)butyl)amino)-2-((1-methyl-1H-pyrazolo[3,4-d]pyrimidin-4-yl)amino) butanoic Acid]	< 50
CN(C)C(=O)CN(CCCCc1ccc2c(n1)NCCC2)CC[C@H](Nc1ncc(C(F)(F)F)cn1)C(=O)O [Compound 141, (S)-4-((2-(dimethylamino)-2-oxoethyl) (4-(5,6,7,8-tetrahydro-1,8-naphthyridin-2-yl)butyl)amino)-2-((5-(trifluoromethyl)pyrimidin-2-yl)amino) butanoic Acid]	50 to 250
O=C(O)[C@H](CCN(CCCCc1ccc2c(n1)NCCC2)CC(F)F)Nc1cc(-c2ccccc2)ncn1 [Compound 142, (S)-4-((2,2-difluoroethyl) (4-(5,6,7,8-tetrahydro-1,8-naphthyridin-2-yl)butyl)amino)-2-((6-phenylpyrimidin-4-yl)amino) butanoic Acid]	> 1000
O=C(O)[C@H](CCN(CCCCc1ccc2c(n1)NCCC2)CCOc1ccc(F)cc1)Nc1ncnc2[nH]ncc12 [Compound 143, (S)-2-((1H-pyrazolo[3,4-d]pyrimidin-4-yl)amino)-4-((2-(4-fluorophenoxy)ethyl) (4-(5,6,7,8-tetrahydro-1,8-naphthyridin-2-yl)butyl)amino) butanoic Acid]	50 to 250
O=C(O)[C@H](CCN(CCCCc1ccc2c(n1)NCCC2)CCOc1ccc(F)cc1)Nc1ncc(Br)cn1 [Compound 144, (S)-2-((5-bromopyrimidin-2-yl)amino)-4-((2-(4-fluorophenoxy)ethyl) (4-(5,6,7,8-tetrahydro-1,8-naphthyridin-2-yl)butyl)amino) butanoic Acid]	50 to 250
CN(C)C(=O)CN(CCCCc1ccc2c(n1)NCCC2)CC[C@H](Nc1ccnc(C(F)(F)F)n1)C(=O)O [Compound 145, (S)-4-((2-(dimethylamino)-2-oxoethyl) (4-(5,6,7,8-tetrahydro-1,8-naphthyridin-2-yl)butyl)amino)-2-((2-(trifluoromethyl)pyrimidin-4-yl)amino) butanoic Acid]	< 50
O=C(O)[C@H](CCN(CCCCc1ccc2c(n1)NCCC2)CC(F)F)Nc1ncc(C2CC2)cn1 [Compound 146, (S)-2-((5-cyclopropylpyrimidin-2-yl)amino)-4-((2,2-difluoroethyl) (4-(5,6,7,8-tetrahydro-1,8-naphthyridin-2-yl)butyl)amino) butanoic Acid]	> 1000
O=C(O)[C@H](CCN(CCCCc1ccc2c(n1)NCCC2)CC1(F)COC1)Nc1ncnc2ccccc12 [Compound 147, (S)-4-(((3-fluorooxetan-3-yl)methyl) (4-(5,6,7,8-tetrahydro-1,8-naphthyridin-2-yl)butyl)amino)-2-(quinazolin-4-ylamino) butanoic Acid]	50 to 250
